Values after ≈ are worked out from the molar mass of the structure shown. Where a name gives a salt, the structure may show the parent alone. Read-outs that look alike come from different tables or passages of the source.
Tests used:
[1] = tested on: M. tuberculosis ATCC 27,294; experiment: MIC by resazurin microplate assay (broth microdilution); format: cell-based, Mycobacterium tuberculosis; details: for MIC: read-out: Minimal inhibitory concentration (MIC) M. tuberculosis
[2] = tested on: C. ammoniagenes ATCC 6872; experiment: as above; format: cell-based, Corynebacterium ammoniagenes; details: for MIC: Corynebacterium ammoniagenes, ATCC6872, 16 h
[3] = biological target: T1, CaFADS FMNAT activity (Corynebacterium ammoniagenes, UniProt Q59263); experiment: FMNAT activity of CaFADS: residual activity, IC50, inhibition mechanism (HPLC); format: biochemical; details: for remaining activity at 250 µM: pH 7, read-out: % Residual FMNAT activity; for remaining activity at 50 µM: read-out: Residual activity (FMNAT); for Ki: global Lineweaver–Burk fit
T1 construct: Recombinant CaFADS was overexpressed in BL21 (DE3) E. coli cells and purified as previously described; made in house; host or cells: E. coli BL21 (DE3)
T1 sequence (Q59263 whole entry): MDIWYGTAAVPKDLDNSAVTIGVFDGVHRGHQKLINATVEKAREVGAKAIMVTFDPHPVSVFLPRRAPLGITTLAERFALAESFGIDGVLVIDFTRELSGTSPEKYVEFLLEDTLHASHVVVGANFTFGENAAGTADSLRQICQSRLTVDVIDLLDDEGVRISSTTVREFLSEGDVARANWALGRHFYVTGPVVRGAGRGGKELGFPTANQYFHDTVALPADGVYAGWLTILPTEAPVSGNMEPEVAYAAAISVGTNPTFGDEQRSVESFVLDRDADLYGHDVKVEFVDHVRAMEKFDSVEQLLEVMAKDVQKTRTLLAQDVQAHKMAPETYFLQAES
Protocol: (§1) Then, the RFK and FMNAT reactions were individually assayed in the presence of the HTS hits at 25 °C. Reaction mixtures contained 50 µM ATP, 5 µM RF, 0.4 µM CaFADS in 20 mM PIPES, pH 7.0, 0.8 mM MgCl2, when assaying the RFK activity, and 50 µM ATP, 10 µM FMN, 0.4 µM CaFADS in 20 mM PIPES, pH 7.0, 10 mM MgCl2 when measuring the FMNAT reaction. […] Finally, reactions were stopped by boiling the samples at 100 °C for 5 min, and the precipitated protein was eliminated through centrifugation. The transformation of RF into FMN or FAD was evaluated through flavins separation by HPLC, as previously described. […] When assaying the HTS hits against the FMNAT activity of SpnFADS, similar conditions were used but samples contained 3 mM sodium dithionite to maintain the flavin in its reduced state. Data were processed as previously reported. All the experiments were performed in triplicate.
(§2) Experiments were performed and analysed through HPLC as described above. Positive controls (without any hit compound) were included in every reaction set. DMSO concentration was kept at 2.5% in all samples. All the experiments were performed in triplicate.
All the experiments were carried out in 20 mM PIPES, 10 mM MgCl2, pH 7.0, 2.5% DMSO at 25 °C, being the final reaction volume 500 µl. The reactions were initiated by addition of CaFADS at a final concentration of ∼40 nM, followed by 1 min incubation. The flavin composition of the supernatant was analysed as previously described. All the experiments were performed in triplicate. The effect of the inhibitors on Km and Vmax was determined by fitting the data sets to the Michaelis–Menten model. Additionally, data were globally fit to Lineweaver–Burk equations for competitive, uncompetitive, non-competitive or mixed inhibition, yielding Ki, as well as Ki′ when applying, for each compound (Equations (1–4), respectively).

[4] = biological target: T2, CaFADS RFK activity (Corynebacterium ammoniagenes, UniProt Q59263); experiment: RFK activity of CaFADS in the presence of HTS hits (flavins separated by HPLC); format: biochemical; details: pH 7, read-out: % Residual RFK activity
T2 construct: Recombinant CaFADS was overexpressed in BL21 (DE3) E. coli cells and purified as previously described; made in house; host or cells: E. coli BL21 (DE3)
T2 sequence (Q59263 whole entry): as above
Protocol: as §1

[5] = tested on: S. pneumoniae ATCC 49619; experiment: MIC by resazurin microplate assay (broth microdilution); format: cell-based, Streptococcus pneumoniae; details: read-out: Minimal inhibitory concentration (MIC) S. pneumoniae
[6] = biological target: SpnFADS FMNAT activity (Streptococcus pneumoniae, UniProt A0A0H2UPY5); experiment: biochemical; details: SpnFADS, 25 °C; for IC50: compounds assayed 0–100 μM, read-out: FMNAT activity IC50
Chain of SpnFADS FMNAT activity (A0A0H2UPY5 entry or part of it): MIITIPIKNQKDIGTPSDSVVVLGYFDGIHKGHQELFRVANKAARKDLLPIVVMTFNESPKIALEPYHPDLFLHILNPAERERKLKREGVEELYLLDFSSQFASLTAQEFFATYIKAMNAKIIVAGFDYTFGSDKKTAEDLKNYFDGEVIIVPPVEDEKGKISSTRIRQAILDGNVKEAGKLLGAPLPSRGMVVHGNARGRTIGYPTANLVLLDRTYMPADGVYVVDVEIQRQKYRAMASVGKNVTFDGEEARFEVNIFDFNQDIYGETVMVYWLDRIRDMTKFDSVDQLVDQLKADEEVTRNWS
Protocol: as §1, §2

[7] = biological target: SpnFADS RFK activity (Streptococcus pneumoniae, UniProt A0A0H2UPY5); experiment: biochemical
Chain of SpnFADS RFK activity (A0A0H2UPY5 entry or part of it): as above
Protocol: as §1, §2

[8] = biological target: T3, CaFADS (Corynebacterium ammoniagenes, UniProt Q59263); experiment: Isothermal titration calorimetry (ITC) of hits binding to CaFADS; details: ITC 25 °C, for 24: Site 1–2
T3 construct: Recombinant CaFADS was overexpressed in BL21 (DE3) E. coli cells and purified as previously described; made in house; host or cells: E. coli BL21 (DE3)
T3 sequence (Q59263 whole entry): as the sequence (Q59263 whole entry) above
Protocol: ITC experiments were performed to characterise the protein’s affinity for the selected compounds, as also the thermodynamic parameters that drive the interaction. Experiments were carried out in an AutoITC200 (MicroCal) thermostated at 25 °C. In these experiments, ∼400 µM of each compound were used to titrate ∼25 µM CaFADS contained in a 200 µL cell. However, when saturation of the protein was not reached, higher concentrations of compounds were employed. The titrations were performed by stepwise injections of the titrating compound. Up to 19 injections of 2 µl were added to the cell sample and mixed using a 1000 rpm stirrer syringe. The compounds and the protein were dissolved in 20 mM PIPES, pH 7.0, 10 mM MgCl2 and degassed prior to titration. DMSO was added to the protein and ligand samples, until reach a final concentration of 3%. The association constant (Ka), the enthalpy variation (ΔH) and the binding stoichiometry (N), were obtained through non-lineal regression of the data to a model for one or two independent binding sites, implemented in Origin 7.0 (OriginLab) as previously described[27]^,[29]. The entropic contribution (−TΔS), the Gibbs free energy (ΔG) and the dissociation constant (Kd) were obtained through essential thermodynamic equations.

[9] = Mycobacterium tuberculosis, ATCC27, 144 h
[10] = read-out: Minimal inhibitory concentration (MIC) C. ammoniagenes, assayed 0.125–64 μM, 16 h at 37 °C, BHI
[11] = read-out: Minimal inhibitory concentration (MIC) C. ammoniagenes
[12] = Streptococcus pneumoniae, ATCC49619, 10 h
[13] = 100 μM of each compound, n = 3, mean ± SD, read-out: FMNAT activity Res. activity
[14] = SpnFADS, compounds assayed 0–100 μM, 25 °C, read-out: RFK activity IC50
[15] = read-out: RFK activity Res. activity
[16] = SpnFADS, 100 μM of each compound, 25 °C, n = 3, mean ± SD, read-out: RFK activity Res. activity
[17] = assayed 0.125–64 μM, 6 days at 37 °C, Middlebrook 7H9

| Compound | MIC [1, 9] [µM] | MIC [2, 10] [µM] | MIC [2, 11] [µM] | remaining activity at 250 µM [3] [%] | remaining activity at 250 µM [4] [%] | MIC [5, 12] [µM] | activity at 100 µM [6, 13] [%] | IC50 [7, 14] [µM] | IC50 [3] [µM] | remaining activity at 50 µM [3] [%] | other results |
| --- | --- | --- | --- | --- | --- | --- | --- | --- | --- | --- | --- |
| CC/C(=C(/CC)c1ccc(O)cc1)c1ccc(O)cc1 [HTS hit 32, diethylstilbestrol] | > 64 | 2 to 16 (≈ 0.537 to 4.29 µg/mL) | 8 (≈ 2.15 µg/mL) | 5 to 50 | 50 to 75 | 64 (≈ 17.2 µg/mL) |  |  |  |  |  |
| O=C(O)CCc1nc(-c2ccccc2)c(-c2ccccc2)o1 [HTS hit 43, oxaprozin] |  |  |  | ≤ 5 | ≥ 75 |  | 100 ± 15 | 14 ± 2 | 1 ± 0.5 | 20.3 ± 5.2 | activity at 100 µM [7, 15]: 32 ± 3% |
| O=C(O)c1cccnc1Nc1cccc(C(F)(F)F)c1 [HTS hit 11] | > 64 |  | > 64 | ≤ 5 | ≥ 75 | > 64 |  |  | 9 ± 1.3 | 34.6 ± 4.9 |  |
| CCCCCCCCCCCCCCCC[N+](C)(C)CCN(Cc1ccc(OC)cc1)c1ncccn1 [HTS hit 9, thonzonium bromide] | 16 | < 2 | 2 | ≤ 5 | ≤ 5 | 1 to 2 | 7 ± 1 | 6 ± 1 |  |  | IC50 [6]: 78 ± 6 µM; activity at 100 µM [7, 16]: 0% |
| CCc1oc2ccccc2c1C(=O)c1cc(Br)c(O)c(Br)c1 [HTS hit 17, benzbromarone] | > 64 | 2 to 16 (≈ 0.848 to 6.79 µg/mL) | 8 (≈ 3.39 µg/mL) | ≤ 5 | ≥ 75 | > 64 |  |  | 12.8 ± 3.4 | 33.5 ± 10.1 |  |
| O=C(O)c1cc(/N=N/c2ccc(S(=O)(=O)Nc3ccccn3)cc2)ccc1O [HTS hit 8, sulfasalazine] |  |  |  | 5 to 50 | ≥ 75 |  |  |  |  |  |  |
| verteporfin [HTS hit 47] |  |  |  |  |  |  |  |  |  |  | MIC [1, 17]: 8 µM; Minimal inhibitory concentration (MIC) C. ammoniagenes ([2]; assayed 0.125–64 μM, 16 h at 37 °C, BHI): 2 to 4 µM; MIC ([5]; assayed 0.125–64 μM, 10 h at 37 °C, BHI with 4% FBS): 4 µM |
| CN1CCCN=C1/C=C/c1cccc(O)c1 [HTS hit 19, oxantel pamoate] |  |  |  | ≤ 5 | ≥ 75 |  |  |  | 20.8 ± 2.6 | 43.3 ± 3.9 |  |
| CC(C)n1c(/C=C/C(O)CC(O)CC(=O)O)c(-c2ccc(F)cc2)c2ccccc21 (stereo not drawn) [HTS hit 37, fluvastatin sodium salt] | > 64 |  | > 64 | ≤ 5 | ≤ 5 | > 64 | 0 |  |  |  | IC50 [6]: 7 ± 1 µM; IC50 [7]: > 100 µM; activity at 100 µM [7, 15]: 96 ± 10% |
| C/C=C(/C(=C/C)c1ccc(O)cc1)c1ccc(O)cc1 [HTS hit 35, dienestrol] | > 64 | 2 to 16 (≈ 0.533 to 4.26 µg/mL) | 16 to 32 (≈ 4.26 to 8.52 µg/mL) | 5 to 50 | ≤ 5 | 64 (≈ 17 µg/mL) |  |  |  |  |  |
| CCCCC(CC)CNC(=N)NC(=N)NCCCCCCNC(=N)NC(=N)NCC(CC)CCCC (stereo not drawn) [HTS hit 33, alexidine dihydrochloride] | 2 to 4 | < 2 | 0.125 | ≤ 5 | ≤ 5 | 0.5 | 93 ± 11 | 33 ± 4 |  |  | Minimal inhibitory concentration (MIC) M. tuberculosis [1, 17]: below 8 μM; IC50 [6]: > 100 µM; activity at 100 µM [7, 16]: 26 ± 3% |
| Cc1c(Nc2ncccc2C(=O)O)cccc1C(F)(F)F [HTS hit 31, flunixin meglumine] | > 64 | > 64 | 32 to 64 | ≤ 5 | ≥ 75 | > 64 |  |  | 6.6 ± 0.6 | 24.5 ± 1.9 | N (binding stoichiometry) ([8]; 3% DMSO): ≈ 1; ΔG ([8]; average value where N ≈ 2): -6.2 ± 0.6 kcal/mol; ΔH ([8]; average value where N ≈ 2): -7.2 ± 0.4 kcal/mol; −TΔS ([8]; average value where N ≈ 2): 1.1 ± 0.1 kcal/mol; Kd ([8]; Kd, 3% DMSO, average value for two hit molecules where N ≈ 2): 30.9 ± 2.8 µM; Inhibition mechanism ([3]; CaFADS FMNAT, saturating ATP (regarding the FMN substrate)): Non-competitive; Inhibition mechanism ([3]; CaFADS FMNAT, saturating FMN (regarding the ATP substrate)): Mixed; K'i ([3]; CaFADS FMNAT, saturating FMN, varying ATP, binding to the CaFADS-ATP complex): 18.4 ± 4.0 µM; Ki ([3]; CaFADS FMNAT, saturating ATP, varying FMN): 0.09 ± 0.03 µM; Ki ([3]; CaFADS FMNAT, saturating FMN, varying ATP): 3.5 ± 1 µM; apparent kcat ([3]; saturating ATP, varying FMN, inhibitor 1 μM): 0.41 ± 0.0483 s⁻¹; apparent kcat ([3]; saturating ATP, varying FMN, inhibitor 4 μM): 0.302 ± 0.0233 s⁻¹; apparent kcat ([3]; saturating ATP, varying FMN, inhibitor 5 μM): 0.107 ± 0.02 s⁻¹; apparent kcat ([3]; saturating ATP, varying FMN, inhibitor 7 μM): 0.05 ± 0.0067 s⁻¹; apparent kcat ([3]; saturating ATP, varying FMN, inhibitor 10 μM): 0.05 ± 0.0067 s⁻¹; apparent kcat ([3]; saturating FMN, varying ATP, inhibitor 4 μM): 0.328 ± 0.0167 s⁻¹; apparent kcat ([3]; saturating FMN, varying ATP, inhibitor 5 μM): 0.288 ± 0.0183 s⁻¹; apparent kcat ([3]; saturating FMN, varying ATP, inhibitor 7 μM): 0.282 ± 0.01 s⁻¹; apparent kcat ([3]; saturating FMN, varying ATP, inhibitor 10 μM): 0.255 ± 0.0217 s⁻¹; apparent kcat ([3]; saturating FMN, varying ATP, inhibitor 12 μM): 0.23 ± 0.0167 s⁻¹ |
| Cc1c(Cl)cccc1Nc1ccccc1C(=O)O [HTS hit 2] | > 64 |  | > 64 | ≤ 5 | ≥ 75 | > 64 |  | > 100 | 8.9 ± 1 | 41.1 ± 5.2 | remaining activity at 100 µM [6, 13]: 100 ± 12%; remaining activity at 100 µM [7, 15]: 78 ± 10% |

— PMC7012052, “Discovery of antimicrobial compounds targeting bacterial type FAD synthetases” (Journal of Enzyme Inhibition and Medicinal Chemistry, 2017)
